The RepoRT retention time repository (doi:10.1021/acs.analchem.2c02893)
Values belong to the compound of their own block, whether it stands above or below them.

How the values were obtained:
Settings in all cases: stereoisomer not certain
[1] = RP, Waters ACQUITY UPLC BEH C18, 100 × 2.1 mm, 1.7 µm, 35 °C, 0.35 mL/min, estimated dead time 0.63 min; A: water + 0.01% formic acid + 5 mM ammonium formate, pH 3.71; B: acetonitrile + 0.01% formic acid, pH 3.71; gradient (min/%B) 0/5 0.5/5 16/95 16.1/99 19/99 19.1/5 21/5
[2] = RP, Thermo Scientific Acclaim RSLC 120 C18, 100 × 2.1 mm, 2.2 µm, 30 °C, 0.2 mL/min, estimated dead time 1.1 min; A: 90% water + 10% methanol + 0.01% formic acid + 5 mM ammonium formate, pH 3.61; B: methanol + 0.01% formic acid + 5 mM ammonium formate, pH 3.61; gradient (min/%B) 0/1 1/1 2/39 13/99.9 15/99.9 15.1/1 20.1/1
[3] = RP, Waters ACQUITY UPLC BEH C18, 100 × 2.1 mm, 1.7 µm, 30 °C, 0.35 mL/min, estimated dead time 0.63 min; A: water + 0.01% formic acid + 5 mM ammonium formate, pH 3.71; B: acetonitrile + 0.01% formic acid, pH 3.71; gradient (min/%B) 0/10 3/10 22/100 30/100 30.1/10 40/10
[4] = RP, Thermo Scientific Acclaim RSLC 120 C18, 100 × 2.1 mm, 2.2 µm, 30 °C, 0.2 mL/min, estimated dead time 1.1 min; A: water + 0.1% formic acid, pH 2.6; B: methanol + 0.1% formic acid, pH 2.6; gradient (min/%B) 0/10 4/50 17/95 25/95 25.1/10 30/10

Structure (SMILES): CC(N)Cc1ccccc1 (stereo not given) [Amphetamine]
LC retention time [1]: 3.28 min
LC retention time [2]: 4.16 min
LC retention time [3]: 2.99 min
LC retention time [4]: 3.86 min

Structure (SMILES): N#CSCSc1nc2ccccc2s1 [TCMTB]
LC retention time [1]: 10.1 min
LC retention time [2]: 9.25 min
LC retention time [3]: 13.4 min
LC retention time [4]: 11.4 min

Structure (SMILES): CC(N)C12CC3CC(CC(C3)C1)C2 (stereo not given) [Rimantadin]
LC retention time [1]: 5.86 min
LC retention time [2]: 6.71 min
LC retention time [3]: 7.89 min
LC retention time [4]: 6.34 min

Structure (SMILES): C1=CCC(c2cccnc2)NC1 (stereo not given) [Anatabine]
LC retention time [1]: 1.27 min
LC retention time [2]: 2.68 min
LC retention time [3]: 1.08 min
LC retention time [4]: 3.66 min

Structure (SMILES): CCNc1nc(N)nc(Cl)n1 [Atrazine-desisopropyl]
LC retention time [1]: 3.58 min
LC retention time [2]: 4.75 min
LC retention time [3]: 3.51 min
LC retention time [4]: 5.22 min

Structure (SMILES): Nc1ncnc2c1ncn2C1OC(CO)C(O)C1O (stereo not given) [Adenosine]
LC retention time [1]: 1.27 min
LC retention time [2]: 3.14 min
LC retention time [3]: 1.31 min
LC retention time [4]: 2.13 min

Structure (SMILES): COP(N)(=O)SC (stereo not given) [Methamidophos]
LC retention time [1]: 1.34 min
LC retention time [2]: 2.76 min
LC retention time [3]: 1.18 min
LC retention time [4]: 2.61 min

Structure (SMILES): COc1cc(Cc2cnc(N)nc2N)cc(OC)c1OC [Trimethoprim]
LC retention time [1]: 3.78 min
LC retention time [2]: 4.06 min
LC retention time [3]: 4.48 min
LC retention time [4]: 3.86 min

Structure (SMILES): Nc1nc(N)nc(NC2CC2)n1 [Cyromazine]
LC retention time [1]: 1.23 min
LC retention time [2]: 2.78 min
LC retention time [3]: 1.06 min
LC retention time [4]: 2.06 min

Structure (SMILES): CC12CCC(O)CC1CCC1C2C(=O)CC2(C)C1CCC2(O)C(=O)CO (stereo not given)
LC retention time [1]: 7.37 min
LC retention time [2]: 9.21 min
LC retention time [3]: 9.93 min
LC retention time [4]: 11.2 min

Structure (SMILES): Cc1cccc(C)c1OCC(=O)NC(Cc1ccccc1)C(O)CC(Cc1ccccc1)NC(=O)C(C(C)C)N1CCCNC1=O (stereo not given) [Lopinavir]
LC retention time [1]: 11 min
LC retention time [2]: 11.8 min
LC retention time [3]: 14.4 min
LC retention time [4]: 15.4 min

Structure (SMILES): CC(N)Cc1ccc2c(c1)OCO2 (stereo not given) [MDA]
LC retention time [1]: 3.46 min
LC retention time [2]: 4.19 min
LC retention time [3]: 3.36 min
LC retention time [4]: 3.96 min

Structure (SMILES): COCCc1ccc(OCC(O)CNC(C)C)cc1 (stereo not given) [Metoprolol]
LC retention time [1]: 4.79 min
LC retention time [2]: 4.93 min
LC retention time [3]: 6.53 min
LC retention time [4]: 4.94 min

Structure (SMILES): C=CC(N)CCC(=O)O (stereo not given) [Vigabatrin]
LC retention time [1]: 0.83 min
LC retention time [2]: 1.38 min
LC retention time [3]: 0.81 min
LC retention time [4]: 1.34 min

Structure (SMILES): CCC1OC(=O)CC(O)C(C)C(OC2OC(C)C(OC3CC(C)(O)C(O)C(C)O3)C(N(C)C)C2O)C(CC=O)CC(C)C(=O)C=CC(C)=CC1COC1OC(C)C(O)C(OC)C1OC (stereo not given) [Tylosin]
LC retention time [1]: 7.42 min
LC retention time [2]: 7.88 min
LC retention time [3]: 10.1 min
LC retention time [4]: 7.75 min

Structure (SMILES): CNC(=O)ON=C(C)C(C)SC (stereo not given) [Butocarboxim]
LC retention time [1]: 5.7 min
LC retention time [2]: 6.07 min
LC retention time [3]: 7.64 min
LC retention time [4]: 6.82 min

Structure (SMILES): CN1CCC23c4c5ccc(O)c4OC2C(O)C=CC3C1C5 (stereo not given) [Morphine (MOR)]
LC retention time [1]: 1.47 min
LC retention time [2]: 2.54 min
LC retention time [3]: 1.21 min
LC retention time [4]: 2.11 min

Structure (SMILES): COc1cc2c(c(OC)c1OC)-c1ccc(OC)c(=O)cc1C(NC(C)=O)CC2 (stereo not given) [Colchicine]
LC retention time [1]: 5.99 min
LC retention time [2]: 6.43 min
LC retention time [3]: 8.29 min
LC retention time [4]: 7.17 min

Structure (SMILES): CN=C(NC#N)NCCSCc1nc[nH]c1C [Cimetidine]
LC retention time [1]: 2.11 min
LC retention time [2]: 3.24 min
LC retention time [3]: 1.54 min
LC retention time [4]: 2.88 min

Structure (SMILES): O=P(Oc1ccccc1)(Oc1ccccc1)Oc1ccccc1 [Phosphate-Triphenyl]
LC retention time [1]: 11.8 min
LC retention time [2]: 11 min
LC retention time [3]: 15.5 min
LC retention time [4]: 14.3 min

Structure (SMILES): CCCCC(CC)COC(=O)C(C#N)=C(c1ccccc1)c1ccccc1 (stereo not given) [Octocrylene]
LC retention time [1]: 15.3 min
LC retention time [2]: 13.4 min
LC retention time [3]: 19.8 min
LC retention time [4]: 18 min

Structure (SMILES): CC(C)NCC(O)c1ccc(N)c(C#N)c1 (stereo not given) [Cimaterol]
LC retention time [1]: 2.1 min
LC retention time [2]: 2.99 min
LC retention time [3]: 1.48 min
LC retention time [4]: 2.51 min

Structure (SMILES): CCCCCc1cc(O)c2c(c1)OC(C)(C)C1CCC(C)=CC21 (stereo not given) [THC]
LC retention time [1]: 15.1 min
LC retention time [2]: 14 min
LC retention time [3]: 19.6 min
LC retention time [4]: 18.7 min

Second part, the compound after the results:

LC retention time [1]: 4.03 min
LC retention time [2]: 4.59 min
LC retention time [3]: 5.03 min
LC retention time [4]: 5.06 min
Structure (SMILES): CC(=O)Nc1ccc(S(=O)(=O)Nc2nc(C)cc(C)n2)cc1 [Sulfamethazine-N4-Acetyl]

LC retention time [1]: 3.56 min
LC retention time [2]: 4.33 min
LC retention time [3]: 3.59 min
LC retention time [4]: 3.97 min
Structure (SMILES): CCNCC(=O)Nc1c(C)cccc1C [Lidocaine-Nor]

LC retention time [1]: 3.7 min
LC retention time [2]: 3.89 min
LC retention time [3]: 4.14 min
LC retention time [4]: 3.69 min
Structure (SMILES): CC(C)NCC(O)COc1cccc2[nH]ccc12 (stereo not given) [Pindolol]

LC retention time [1]: 6.49 min
LC retention time [2]: 6.59 min
LC retention time [3]: 8.91 min
LC retention time [4]: 6.27 min
Structure (SMILES): CC(C)NCC(O)COc1cccc2ccccc12 (stereo not given) [Propranolol]

LC retention time [1]: 7.21 min
LC retention time [2]: 7.83 min
LC retention time [3]: 9.74 min
LC retention time [4]: 9.38 min
Structure (SMILES): CCCCOc1ccc(CC(=O)NO)cc1 [Bufexamac]

LC retention time [1]: 10.7 min
LC retention time [2]: 10.7 min
LC retention time [3]: 14 min
LC retention time [4]: 13.1 min
Structure (SMILES): CC(C)Cc1ccc(C(C)C(=O)O)cc1 (stereo not given) [Ibuprofen]

LC retention time [1]: 4.18 min
LC retention time [2]: 4.54 min
LC retention time [3]: 5.29 min
LC retention time [4]: 4.46 min
Structure (SMILES): CCN(CC)CC(=O)Nc1c(C)cccc1C [Lidocaine]

LC retention time [1]: 5.34 min
LC retention time [2]: 5.24 min
LC retention time [3]: 7.46 min
LC retention time [4]: 5.29 min
Structure (SMILES): CCN(CC)C(=O)Nc1ccc(OCC(O)CNC(C)(C)C)c(C(C)=O)c1 (stereo not given) [Celiprolol]

LC retention time [1]: 1.2 min
LC retention time [2]: 2.73 min
LC retention time [3]: 1.06 min
LC retention time [4]: 1.69 min
Structure (SMILES): NC(=O)c1cccnc1 [Nicotinamide]

LC retention time [1]: 5.58 min
LC retention time [2]: 5.93 min
LC retention time [3]: 7.53 min
LC retention time [4]: 6.82 min
Structure (SMILES): CCOc1ccc(NC(C)=O)cc1 [Phenacetin]

LC retention time [1]: 2 min
LC retention time [2]: 3.48 min
LC retention time [3]: 1.59 min
LC retention time [4]: 3.52 min
Structure (SMILES): CC(=O)Nc1ccc(O)cc1 [Paracetamol]

LC retention time [1]: 11 min
LC retention time [2]: 10.8 min
LC retention time [3]: 14.5 min
LC retention time [4]: 13.8 min
Structure (SMILES): COc1ccc(C(=O)c2ccccc2)c(O)c1 [Benzophenon 3 (=2-Hydroxy-4-methoxybenzophenon)]
